Values quoted from earlier work in publication PMC9851200, “Multiparameter phenotypic screening for endogenous TFEB and TFE3 translocation identifies novel chemical series modulating lysosome function” (Autophagy, 2022).

Experiments:
Set-up in all cases: method as in original PKIS2 published data
[1] = target: T1, kinases (KINOMEscan panel) (Homo sapiens, UniProt Q06418); settings: Published KINOMEscan; ref original PKIS2 published data; cited from earlier work
T1 sequence (Q06418 41-890): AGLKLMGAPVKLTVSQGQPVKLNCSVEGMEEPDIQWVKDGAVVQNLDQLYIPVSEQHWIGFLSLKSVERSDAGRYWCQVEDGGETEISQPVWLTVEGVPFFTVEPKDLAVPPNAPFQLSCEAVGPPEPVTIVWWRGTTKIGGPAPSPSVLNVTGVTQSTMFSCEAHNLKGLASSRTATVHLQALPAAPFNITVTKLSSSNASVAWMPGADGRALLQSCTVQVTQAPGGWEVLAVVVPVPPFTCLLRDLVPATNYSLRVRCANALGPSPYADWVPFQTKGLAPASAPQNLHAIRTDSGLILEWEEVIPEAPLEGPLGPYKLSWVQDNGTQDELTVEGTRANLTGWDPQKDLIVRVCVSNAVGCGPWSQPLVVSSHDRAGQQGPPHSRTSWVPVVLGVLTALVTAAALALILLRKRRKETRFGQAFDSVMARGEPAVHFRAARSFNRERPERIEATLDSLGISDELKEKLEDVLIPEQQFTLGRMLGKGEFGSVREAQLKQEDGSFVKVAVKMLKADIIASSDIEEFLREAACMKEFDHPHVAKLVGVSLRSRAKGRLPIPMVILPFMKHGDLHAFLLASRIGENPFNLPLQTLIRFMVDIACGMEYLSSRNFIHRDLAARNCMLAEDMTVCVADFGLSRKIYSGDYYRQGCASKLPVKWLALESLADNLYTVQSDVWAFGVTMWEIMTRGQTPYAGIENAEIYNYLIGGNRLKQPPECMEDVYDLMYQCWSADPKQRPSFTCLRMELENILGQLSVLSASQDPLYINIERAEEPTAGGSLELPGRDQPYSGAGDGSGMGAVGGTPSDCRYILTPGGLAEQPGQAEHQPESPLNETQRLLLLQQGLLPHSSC

[2] = target: kinases (KINOMEscan panel) (Homo sapiens, UniProt Q9BYT3); settings: kinase STK33; Published KINOMEscan; ref original PKIS2 published data; cited from earlier work
Chain of kinases (KINOMEscan panel) (Homo sapiens, UniProt Q9BYT3) (Q9BYT3 whole entry): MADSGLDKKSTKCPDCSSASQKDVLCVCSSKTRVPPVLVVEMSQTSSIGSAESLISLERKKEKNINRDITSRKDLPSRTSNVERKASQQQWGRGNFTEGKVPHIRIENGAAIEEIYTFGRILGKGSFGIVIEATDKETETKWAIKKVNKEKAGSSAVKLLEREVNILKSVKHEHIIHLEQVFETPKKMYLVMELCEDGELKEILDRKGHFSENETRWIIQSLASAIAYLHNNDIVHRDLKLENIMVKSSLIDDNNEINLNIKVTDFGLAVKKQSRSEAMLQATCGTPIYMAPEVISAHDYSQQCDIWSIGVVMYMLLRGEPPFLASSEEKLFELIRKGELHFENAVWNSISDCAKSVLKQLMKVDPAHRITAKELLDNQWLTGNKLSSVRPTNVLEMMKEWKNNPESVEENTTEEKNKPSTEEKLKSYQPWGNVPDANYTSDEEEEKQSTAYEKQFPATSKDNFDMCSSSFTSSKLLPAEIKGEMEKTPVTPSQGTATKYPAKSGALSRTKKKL

[3] = target: kinases (KINOMEscan panel) (Homo sapiens, UniProt Q99558); settings: kinase MAP3K14; Published KINOMEscan; ref original PKIS2 published data; cited from earlier work
Chain of kinases (KINOMEscan panel) (Homo sapiens, UniProt Q99558) (Q99558 whole entry): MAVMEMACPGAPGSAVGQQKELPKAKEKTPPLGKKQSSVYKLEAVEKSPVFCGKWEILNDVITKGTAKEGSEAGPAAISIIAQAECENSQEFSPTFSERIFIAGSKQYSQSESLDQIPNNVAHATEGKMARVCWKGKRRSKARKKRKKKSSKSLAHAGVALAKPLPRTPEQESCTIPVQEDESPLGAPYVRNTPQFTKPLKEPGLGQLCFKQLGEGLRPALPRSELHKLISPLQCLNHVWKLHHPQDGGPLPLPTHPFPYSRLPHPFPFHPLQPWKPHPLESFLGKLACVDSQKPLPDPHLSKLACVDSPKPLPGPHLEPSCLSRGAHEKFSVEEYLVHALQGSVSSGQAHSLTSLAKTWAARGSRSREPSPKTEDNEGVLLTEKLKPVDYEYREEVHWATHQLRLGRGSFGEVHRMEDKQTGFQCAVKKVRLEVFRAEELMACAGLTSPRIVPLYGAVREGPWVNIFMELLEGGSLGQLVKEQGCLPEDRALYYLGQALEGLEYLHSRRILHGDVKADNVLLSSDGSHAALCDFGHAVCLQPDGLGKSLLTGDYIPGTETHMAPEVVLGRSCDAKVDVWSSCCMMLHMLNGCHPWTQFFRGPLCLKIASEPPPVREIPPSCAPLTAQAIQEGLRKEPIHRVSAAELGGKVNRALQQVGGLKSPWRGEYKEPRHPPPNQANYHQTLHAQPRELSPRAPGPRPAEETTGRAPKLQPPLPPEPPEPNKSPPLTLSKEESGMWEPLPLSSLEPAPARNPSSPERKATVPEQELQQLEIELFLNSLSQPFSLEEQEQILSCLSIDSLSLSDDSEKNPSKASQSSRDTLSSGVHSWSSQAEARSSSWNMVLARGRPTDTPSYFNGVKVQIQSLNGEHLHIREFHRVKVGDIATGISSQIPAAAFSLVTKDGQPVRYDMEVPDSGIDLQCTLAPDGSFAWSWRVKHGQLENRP

[4] = target: kinases (KINOMEscan panel) (Homo sapiens, UniProt P49760); settings: kinase CLK2; Published KINOMEscan; ref original PKIS2 published data; cited from earlier work
[5] = target: kinases (KINOMEscan panel) (Homo sapiens, UniProt P41240); settings: kinase CSK; Published KINOMEscan; ref original PKIS2 published data; cited from earlier work
Chain of kinases (KINOMEscan panel) (Homo sapiens, UniProt P41240) (P41240 whole entry): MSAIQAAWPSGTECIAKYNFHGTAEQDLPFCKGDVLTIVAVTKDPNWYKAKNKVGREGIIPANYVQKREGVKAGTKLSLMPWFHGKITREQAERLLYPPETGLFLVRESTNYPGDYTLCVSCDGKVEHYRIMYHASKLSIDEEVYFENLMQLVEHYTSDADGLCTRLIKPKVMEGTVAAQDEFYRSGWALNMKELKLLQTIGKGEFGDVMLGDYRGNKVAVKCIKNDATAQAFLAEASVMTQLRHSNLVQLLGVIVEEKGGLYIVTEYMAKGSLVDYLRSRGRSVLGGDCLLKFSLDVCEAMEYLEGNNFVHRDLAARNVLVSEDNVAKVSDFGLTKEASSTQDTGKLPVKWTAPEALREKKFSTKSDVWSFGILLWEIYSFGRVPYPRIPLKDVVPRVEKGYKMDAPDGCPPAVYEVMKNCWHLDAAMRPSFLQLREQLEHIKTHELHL

[6] = target: kinases (KINOMEscan panel) (Homo sapiens, UniProt P42338); settings: PIK3CB; Published KINOMEscan; ref original PKIS2 published data; cited from earlier work
[7] = target: kinases (KINOMEscan panel) (Homo sapiens, UniProt Q14004); settings: cited from earlier work
Chain of kinases (KINOMEscan panel) (Homo sapiens, UniProt Q14004) (Q14004 whole entry): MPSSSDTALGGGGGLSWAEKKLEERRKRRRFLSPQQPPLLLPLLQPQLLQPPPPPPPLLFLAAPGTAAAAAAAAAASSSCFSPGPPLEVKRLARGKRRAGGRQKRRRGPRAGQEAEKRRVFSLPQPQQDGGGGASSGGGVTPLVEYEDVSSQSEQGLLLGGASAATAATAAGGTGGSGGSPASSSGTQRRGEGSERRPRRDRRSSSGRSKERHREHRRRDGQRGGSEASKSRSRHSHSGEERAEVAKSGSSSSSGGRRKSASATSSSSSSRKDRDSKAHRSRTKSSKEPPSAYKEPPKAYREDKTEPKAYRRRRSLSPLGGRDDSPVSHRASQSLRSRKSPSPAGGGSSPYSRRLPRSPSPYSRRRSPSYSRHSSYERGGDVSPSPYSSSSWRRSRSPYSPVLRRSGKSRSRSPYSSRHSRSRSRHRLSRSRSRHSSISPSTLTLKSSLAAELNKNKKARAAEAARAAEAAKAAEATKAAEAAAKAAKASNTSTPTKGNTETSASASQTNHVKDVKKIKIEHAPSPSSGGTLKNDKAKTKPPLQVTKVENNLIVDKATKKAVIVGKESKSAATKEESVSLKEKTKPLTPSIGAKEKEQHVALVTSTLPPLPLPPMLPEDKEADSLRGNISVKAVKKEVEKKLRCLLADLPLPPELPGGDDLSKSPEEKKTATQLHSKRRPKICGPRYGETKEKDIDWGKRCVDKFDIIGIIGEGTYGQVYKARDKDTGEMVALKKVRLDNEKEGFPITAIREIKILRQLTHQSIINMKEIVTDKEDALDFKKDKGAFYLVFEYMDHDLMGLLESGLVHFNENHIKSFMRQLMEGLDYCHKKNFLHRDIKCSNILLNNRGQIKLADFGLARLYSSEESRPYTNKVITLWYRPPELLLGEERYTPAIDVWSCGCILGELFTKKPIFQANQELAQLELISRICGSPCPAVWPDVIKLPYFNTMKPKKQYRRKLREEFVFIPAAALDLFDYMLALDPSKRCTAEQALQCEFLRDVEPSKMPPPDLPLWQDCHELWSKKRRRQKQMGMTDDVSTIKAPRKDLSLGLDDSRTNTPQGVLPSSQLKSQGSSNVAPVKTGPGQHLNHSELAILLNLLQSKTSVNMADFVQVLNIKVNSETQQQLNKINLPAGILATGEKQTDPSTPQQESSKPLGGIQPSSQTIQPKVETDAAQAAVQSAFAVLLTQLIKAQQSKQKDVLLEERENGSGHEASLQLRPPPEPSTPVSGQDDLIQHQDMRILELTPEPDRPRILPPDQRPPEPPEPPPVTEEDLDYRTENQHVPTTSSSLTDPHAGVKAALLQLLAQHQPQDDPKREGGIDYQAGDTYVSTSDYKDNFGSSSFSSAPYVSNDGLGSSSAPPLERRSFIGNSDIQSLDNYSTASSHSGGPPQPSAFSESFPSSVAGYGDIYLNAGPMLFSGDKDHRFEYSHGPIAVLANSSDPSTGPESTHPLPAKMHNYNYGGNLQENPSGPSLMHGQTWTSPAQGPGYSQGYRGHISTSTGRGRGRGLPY

[8] = target: kinases (KINOMEscan panel) (Homo sapiens, UniProt P37023); settings: ACVRL1; Published KINOMEscan; ref original PKIS2 published data; cited from earlier work
[9] = target: kinases (KINOMEscan panel) (Homo sapiens, UniProt O60331); settings: PIP5K1C; Published KINOMEscan; ref original PKIS2 published data; cited from earlier work
Chain of kinases (KINOMEscan panel) (Homo sapiens, UniProt O60331) (O60331 whole entry): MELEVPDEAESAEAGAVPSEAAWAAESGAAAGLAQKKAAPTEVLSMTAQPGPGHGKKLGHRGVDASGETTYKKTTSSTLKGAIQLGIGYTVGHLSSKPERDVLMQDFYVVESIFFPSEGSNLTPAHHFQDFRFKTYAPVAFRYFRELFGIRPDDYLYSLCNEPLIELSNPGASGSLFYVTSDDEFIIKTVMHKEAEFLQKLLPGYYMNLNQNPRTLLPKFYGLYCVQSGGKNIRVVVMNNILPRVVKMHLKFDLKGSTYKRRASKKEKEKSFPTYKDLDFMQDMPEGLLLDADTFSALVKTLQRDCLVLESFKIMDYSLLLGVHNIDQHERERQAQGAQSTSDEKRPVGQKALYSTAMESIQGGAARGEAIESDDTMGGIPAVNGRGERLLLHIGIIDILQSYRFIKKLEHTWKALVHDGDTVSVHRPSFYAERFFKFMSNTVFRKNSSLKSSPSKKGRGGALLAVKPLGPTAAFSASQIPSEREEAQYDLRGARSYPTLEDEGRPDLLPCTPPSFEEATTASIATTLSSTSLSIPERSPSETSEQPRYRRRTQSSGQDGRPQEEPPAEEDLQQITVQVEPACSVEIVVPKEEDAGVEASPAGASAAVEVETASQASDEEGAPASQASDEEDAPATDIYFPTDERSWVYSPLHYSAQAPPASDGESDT

[10] = target: kinases (KINOMEscan panel) (Homo sapiens, UniProt Q9UBF8); settings: kinase PI4KB; Published KINOMEscan; ref original PKIS2 published data; cited from earlier work
[11] = target: T2, kinases (KINOMEscan panel) (Homo sapiens, UniProt O14936); settings: kinase CASK; Published KINOMEscan; ref original PKIS2 published data; cited from earlier work
T2 sequence (O14936 1-926): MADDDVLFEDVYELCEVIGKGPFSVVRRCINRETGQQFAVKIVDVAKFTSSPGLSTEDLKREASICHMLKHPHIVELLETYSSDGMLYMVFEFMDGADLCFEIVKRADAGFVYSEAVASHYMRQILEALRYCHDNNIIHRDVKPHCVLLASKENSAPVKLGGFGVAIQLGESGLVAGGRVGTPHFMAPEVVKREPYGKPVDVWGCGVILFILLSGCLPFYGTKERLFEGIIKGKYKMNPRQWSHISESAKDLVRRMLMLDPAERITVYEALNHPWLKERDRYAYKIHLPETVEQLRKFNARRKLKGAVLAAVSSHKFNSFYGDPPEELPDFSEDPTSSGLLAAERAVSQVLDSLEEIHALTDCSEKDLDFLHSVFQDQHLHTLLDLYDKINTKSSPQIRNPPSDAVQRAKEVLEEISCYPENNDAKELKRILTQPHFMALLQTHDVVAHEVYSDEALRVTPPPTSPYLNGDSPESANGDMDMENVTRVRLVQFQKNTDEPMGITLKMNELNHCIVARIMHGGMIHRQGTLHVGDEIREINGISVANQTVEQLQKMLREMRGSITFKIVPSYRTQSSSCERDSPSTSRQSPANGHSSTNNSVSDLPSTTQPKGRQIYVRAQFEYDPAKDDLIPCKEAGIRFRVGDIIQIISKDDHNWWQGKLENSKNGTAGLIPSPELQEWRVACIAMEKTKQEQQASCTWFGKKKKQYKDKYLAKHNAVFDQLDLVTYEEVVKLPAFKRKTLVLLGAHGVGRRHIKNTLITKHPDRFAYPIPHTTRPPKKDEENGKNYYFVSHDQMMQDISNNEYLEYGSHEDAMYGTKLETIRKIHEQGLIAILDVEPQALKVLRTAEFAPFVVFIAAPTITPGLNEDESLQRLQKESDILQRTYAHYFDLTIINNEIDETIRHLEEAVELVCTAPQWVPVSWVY

[12] = target: kinases (KINOMEscan panel) (Homo sapiens, UniProt O95747); settings: Published KINOMEscan; ref original PKIS2 published data; cited from earlier work
Chain of kinases (KINOMEscan panel) (Homo sapiens, UniProt O95747) (O95747 whole entry): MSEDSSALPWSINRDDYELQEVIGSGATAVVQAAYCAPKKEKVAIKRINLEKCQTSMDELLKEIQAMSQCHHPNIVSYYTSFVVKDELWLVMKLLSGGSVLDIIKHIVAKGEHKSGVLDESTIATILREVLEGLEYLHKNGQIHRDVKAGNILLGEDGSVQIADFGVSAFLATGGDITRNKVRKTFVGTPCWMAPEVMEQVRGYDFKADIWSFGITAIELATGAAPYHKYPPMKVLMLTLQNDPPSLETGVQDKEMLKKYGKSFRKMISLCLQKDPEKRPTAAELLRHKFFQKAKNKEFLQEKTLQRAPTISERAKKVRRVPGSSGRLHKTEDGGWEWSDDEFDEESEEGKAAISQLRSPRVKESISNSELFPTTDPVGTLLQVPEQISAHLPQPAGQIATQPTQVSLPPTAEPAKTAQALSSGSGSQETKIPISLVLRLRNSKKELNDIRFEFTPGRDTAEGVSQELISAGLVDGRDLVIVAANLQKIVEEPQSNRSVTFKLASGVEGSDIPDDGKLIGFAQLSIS

In the case of `Cc1cccc(-c2nc(Nc3ccncc3)c3ccccc3n2)n1` [NK215], the “KINOMEscan TYRO3” value [1] is given as 0, the “KINOMEscan STK33” value [2] is given as 2 and the “KINOMEscan MAP3K14” value [3] is given as 0. The “KINOMEscan CLK2” value [4] was 8, the “KINOMEscan CSK” value [5] was 4 and the “KINOMEscan PIK3CB” value [6] was 0. The “KINOMEscan CDK13” value [7] was 0, the “KINOMEscan ACVRL1” value [8] was 65 and the “KINOMEscan PIP5K1C” value [9] was 40. The “KINOMEscan PI4KB” value [10] was 0, the “KINOMEscan CASK” value [11] was 0 and the “KINOMEscan OSXR1” value [12] was 0.
